Laboratory results: patent publication US11540516B2, “M-diamide compound and preparation method therefor and use thereof” (priority 2018, dated 2023)
Where two headings read alike, the source gives them in different places.

Experiments:
Format in all cases: in vivo
[1] = system: Spodoptera litura; assay: Indoor bioactivity test against Spodoptera litura (leaf dip); details: foliar
Method: (§1) The leaf dip method was used to assay the insecticidal activity of compounds to strains of Spodoptera litura. Dip the leaf disc into the solution prepared with compound of this invention for 10 seconds, and dry them in a cool environment. Then place them in Petri dish with 4 discs per dish. Put the filter paper into the Petri dish to moisturize it. Put 10 of Spodoptera litura into each dish, which was repeated by 3 times. The dishes were placed in an illumination incubator and incubated at 25° C. with 14 hL: 10 hD illumination. The number of Spodoptera litura death was investigated on the 1st, 2nd and 3rd day after treatment, and the mortality was calculated.
According to the above method, compound 4, 23 and KC1 were selected and parallelly tested against Spodoptera litura to compare the insecticidal activity.

[2] = system: Chilo suppressalis; assay: Indoor bioactivity test against Chilo suppressalis (rice stem dip)
Method: The leaf dip method was used to assay the insecticidal activity of compounds to strains of Chilo suppressalis. The rice was cultivated in a plastic pot with a diameter of 9 cm and a height of 10 cm. When the rice grew about 25 cm, the aerial part of robust and consistent rice seedlings were selectively cut. Their leaves were removed and their stems of about 8 cm were kept for use. Pour the solution prepared with compound of this invention into the Petri dish (about 40 mL) and immerse the rice stems into the solution for 10 seconds. Take rice stems out and dry them in a cool environment. Put a wet cotton ball at the bottom of finger-like glass tube and 5 rice stems in each tube. Put 10 of 3rd-instar larvae of Chilo suppressa into each tube, which was repeated by 3 times. Seal the tubes with black cotton cloth and tighten them with rubber band. The tubes were placed in a illumination incubator at 28° C. and incubated in the dark. The number of alive Chilo suppressalis and the total number were investigated 3 days after treatment. The mortality was calculated.
According to the above method, Compound 23 and KC2 were selected and parallelly tested against Chilo suppressalis.

[3] = system: Spodoptera exigua Hiibner; assay: Indoor bioactivity test against Spodoptera exigua Hiibner (leaf dip); details: foliar, 3rd day after treatment
Method: as §1, with “of Spodoptera exigua Hiibner. Dip the” for “of Spodoptera litura. Dip the”, “of Spodoptera exigua Hiibners into each” for “of Spodoptera litura into each”, “of Spodoptera exigua Hiibner death was” for “of Spodoptera litura death was”

[4] = system: Mythimna separata; assay: Indoor bioactivity test against Mythimna separata (leaf dip); details: foliar, 3rd day after treatment
Excerpt: The leaf dip method was used to assay the insecticidal activity of compounds to strains of Mythimna sepatata. Cut above ground part of fresh maize seedlings, about 10 cm. Dip the maize seedlings into the solution prepared with compound of this invention for 10 seconds and dry them in a cool environment. Then cut the dry maize seedlings into 3˜5 cm leaf sections and put 3 leaf sections into each petri dish. Put ten of 4th-instar larvae of Mythimna separatas into each dish, which was repeated by 3 times. Then the dishes were placed in an illumination incubator and incubated at 25° C. in the dark. Symptoms were investigated on the 1st, 2nd and 3rd day after treatment, and the mortality was calculated.

[5] = system: Plutella xylostella; assay: Indoor bioactivity test against Plutella xylostella (leaf dip); details: foliar; for mortality at 0.4 ppm / mortality at 1 ppm: 3rd day after treatment
Method: as §1, with “Plutella xylostella.” for “Spodoptera litura.”, “Plutella xylostella” for “Spodoptera litura”
According to the above method, compound 4 and KC1 were selected and parallelly tested against Plutella xylostella to compare their insecticidal activity.

[6] = system: soybean thrips; assay: Biological activity on soybean thrips in greenhouse (foliar spray)
Method: Test system: naturally occurring thrips population on soybeans planted in greenhouse. The basic number of active thripses were more than 100 thripses per trifoliate leaf. Under the same conditions, the sensitivity of the thrips population to Spinetoram (dose: 50 mg/L) is 96.55% mortality on the 6th day after treatment.
The size of the plot: 10 m^2, no repetition.
Test formulation: each compound was made into 5% SL (compound 5%+emulsifier 5%+solvent to make up 100%).
(1) Spraying time: both adult and larva thripses were in the active period. The number of spray: 1 time.
(2) Standard for water usage: when dose was in mg/kg, the upper leaves were wet and water began to drop therefrom.
(3) Survey standard: count three single leaves as one leaf. Three leaves were randomly selected and investigated for the number of adult and larva thripses on them.
[…] 2 surveys were conducted.

[7] = 0.4 ppm, 3rd day after treatment, read-out: mortality of Spodoptera litura
[8] = 3rd day after treatment, read-out: mortality of Chilo suppressalis
[9] = 24 h, read-out: Mortality (%) 1 d
[10] = 48 h, read-out: Mortality (%) 2 d
[11] = 72 h, read-out: Mortality (%) 3 d
[12] = dose 50 ppm, 1 d, foliar spray, 5% SL
[13] = dose 50 ppm, 6 d, foliar spray, 5% SL

## O=C(Nc1c(I)cc(C(F)(C(F)(F)F)C(F)(F)F)cc1C(F)(F)F)c1cccc(N(CC2CC2)C(=O)c2ccc(I)cc2)c1F [Compound 53, N-(2-iodo-4-(perfluoropropan-2-yl)-6-(trifluoromethyl)phenyl)-3-(N-(cyclopropylmethyl)-4-iodobenzamido)-2-fluorobenzamide]
[1]; 3rd day after treatment
  mortality at 10 ppm: ≥ 90%
[2]; 3rd day after treatment
  mortality at 10 ppm: ≥ 90%
[3]
  mortality at 10 ppm: ≥ 90%

## O=C(Nc1c(I)cc(C(F)(C(F)(F)F)C(F)(F)F)cc1C(F)(F)F)c1cccc(N(CC2CC2)C(=O)c2ccc(Br)cc2)c1F [Compound 47, N-(2-iodo-4-(perfluoropropan-2-yl)-6-(trifluoromethyl)phenyl)-3-(4-bromo-N-(cyclopropylmethyl)benzamido)-2-fluorobenzamide]
[4]
  mortality at 1 ppm: ≥ 90%
[1]; [7]
  mortality at 0.4 ppm: ≥ 90%
[2]; 3rd day after treatment
  mortality at 10 ppm: ≥ 90%
[3]
  mortality at 1 ppm: 90%

## CC(C1CC1)N(C(=O)c1ccccc1)c1cccc(C(=O)Nc2c(Br)cc(C(F)(C(F)(F)F)C(F)(F)F)cc2C(F)(F)F)c1F (centres unmarked) [Compound 8, N-(2-bromo-4-(perfluoropropan-2-yl)-6-(trifluoromethyl)phenyl)-3-(N-(1-cyclopropylethyl)benzamido)-2-fluorobenzamide]
[4]
  mortality at 1 ppm: ≥ 90%
[5]
  mortality at 0.4 ppm: ≥ 90%

## CC(C1CC1)N(C(=O)c1ccc(C#N)cc1)c1cccc(C(=O)Nc2c(Br)cc(C(F)(C(F)(F)F)C(F)(F)F)cc2C(F)(F)F)c1F (centres unmarked) [Compound 26, N-(2-bromo-4-(perfluoropropan-2-yl)-6-(trifluoromethyl)phenyl)-3-(4-cyano-N-(1-cyclopropylethyl)benzamido)-2-fluorobenzamide]
[4]
  mortality at 1 ppm: ≥ 90%
[2]; [8]
  mortality at 5 ppm: ≥ 90%
[5]
  mortality at 0.4 ppm: ≥ 90%

## CC(C1CC1)N(C(=O)c1ccc(Br)cc1)c1cccc(C(=O)Nc2c(Br)cc(C(F)(C(F)(F)F)C(F)(F)F)cc2C(F)(F)F)c1F (centres unmarked) [Compound 50, N-(2-bromo-4-(perfluoropropan-2-yl)-6-(trifluoromethyl)phenyl)-3-(4-bromo-N-(1-cyclopropylethyl)benzamido)-2-fluorobenzamide]
[2]; 3rd day after treatment
  mortality at 10 ppm: ≥ 90%

## O=C(Nc1c(Br)cc(C(F)(C(F)(F)F)C(F)(F)F)cc1C(F)(F)F)c1cccc(N(C(=O)c2ccccc2)C(C2CC2)C2CC2)c1F [Compound 22, N-(2-bromo-4-(perfluoropropan-2-yl)-6-(trifluoromethyl)phenyl)-3-(N-(dicyclopropylmethyl)benzamido)-2-fluorobenzamide]
[4]
  mortality at 1 ppm: ≥ 90%

## CC(C1CC1)N(C(=O)c1ccc(C(F)(F)F)cc1)c1cccc(C(=O)Nc2c(Br)cc(C(F)(C(F)(F)F)C(F)(F)F)cc2C(F)(F)F)c1F (centres unmarked) [Compound 39, N-(2-bromo-4-(perfluoropropan-2-yl)-6-(trifluoromethyl)phenyl)-3-(N-(1-cyclopropylethyl)-4-(trifluoromethyl)benzamido)-2-fluorobenzamide]
[4]
  mortality at 1 ppm: ≥ 90%
[2]; 3rd day after treatment
  mortality at 10 ppm: ≥ 90%
[5]
  mortality at 1 ppm: ≥ 90%

## CC(C1CC1)N(C(=O)c1ccc(Cl)cc1)c1cccc(C(=O)Nc2c(Br)cc(C(F)(C(F)(F)F)C(F)(F)F)cc2C(F)(F)F)c1F (centres unmarked) [Compound 44, N-(2-bromo-4-(perfluoropropan-2-yl)-6-(trifluoromethyl)phenyl)-3-(4-chloro-N-(1-cyclopropylethyl)benzamido)-2-fluorobenzamide]
[4]
  mortality at 1 ppm: ≥ 90%

## O=C(Nc1c(Br)cc(C(F)(C(F)(F)F)C(F)(F)F)cc1C(F)(F)F)c1cccc(N(CC2CC2)C(=O)c2ccc(I)cc2)c1F [Compound 52, N-(2-bromo-4-(perfluoropropan-2-yl)-6-(trifluoromethyl)phenyl)-3-(N-(cyclopropylmethyl)-4-iodobenzamido)-2-fluorobenzamide]
[4]
  mortality at 1 ppm: ≥ 90%
[1]; 3rd day after treatment
  mortality at 10 ppm: ≥ 90%
[2]; 3rd day after treatment
  mortality at 10 ppm: ≥ 90%

## O=C(Nc1c(Br)cc(C(F)(C(F)(F)F)C(F)(F)F)cc1C(F)(F)F)c1cccc(N(CC2CC2)C(=O)c2ccc(OC(F)(F)F)cc2)c1F [Compound 60, N-(2-bromo-4-(perfluoropropan-2-yl)-6-(trifluoromethyl)phenyl)-3-(N-(cyclopropylmethyl)-4-(trifluoromethoxy)benzamido)-2-fluorobenzamide]
[4]
  mortality at 1 ppm: ≥ 90%
[1]; [7]
  mortality at 0.4 ppm: ≥ 90%
[3]
  mortality at 10 ppm: ≥ 90%
[5]
  mortality at 1 ppm: ≥ 90%

## CN(C(=O)c1ccccc1)c1cccc(C(=O)Nc2c(Br)cc(C(F)(C(F)(F)F)C(F)(F)F)cc2C(F)(F)F)c1F [KC1 (broflanilide), broflanilide, reference compound]
[1]; [9]
  mortality at 0.4 ppm: 0%
  mortality at 1 ppm: 26.7%
[1]; [10]
  mortality at 0.4 ppm: 0%
  mortality at 1 ppm: 33.3%
[1]; [11]
  mortality at 0.4 ppm: 0%
  mortality at 1 ppm: 33.3%
[5]; [9]
  mortality at 0.04 ppm: 0%
[5]; [10]
  mortality at 0.04 ppm: 56.7%
[5]; [11]
  mortality at 0.04 ppm: 90%

## CN(C(=O)c1ccc(C#N)cc1)c1cccc(C(=O)Nc2c(Br)cc(C(F)(C(F)(F)F)C(F)(F)F)cc2C(F)(F)F)c1F [KC2, reference compound]
[2]; 72 h, 0.4 ppm, 3d
  mortality at 0.4 ppm: 0%
[2]; 72 h, 1 ppm, 3d
  mortality at 1 ppm: 53.3%
[2]; 72 h, 2 ppm, 3d
  mortality at 2 ppm: 86.7%
[2]; 72 h, 3d, read-out: Mortality (%, 3d) 5 ppm
  mortality at 5 ppm: 93.3%

## Spinetoram [reference compound]
[6]; dose 50 mg/L, 6th day after treatment
  sensitivity of the thrips population, mortality: 96.55%
[6]; [12]
  Mortality % 1 d: 93.94%
  No. of thrips 1 d: 16
[6]; [13]
  Mortality % 6 d: 96.55%
  No. of thrips 6 d: 4

## CC(C1CC1)N(C(=O)c1ccc(F)cc1)c1cccc(C(=O)Nc2c(Br)cc(C(F)(C(F)(F)F)C(F)(F)F)cc2C(F)(F)F)c1F (centres unmarked) [Compound 63, N-(2-bromo-4-(perfluoropropan-2-yl)-6-(trifluoromethyl)phenyl)-3-(N-(1-cyclopropylethyl)-4-fluorobenzamido)-2-fluorobenzamide]
[5]
  mortality at 1 ppm: ≥ 90%

## O=C(Nc1c(Br)cc(C(F)(C(F)(F)F)C(F)(F)F)cc1C(F)(F)F)c1cccc(N(CC2CC2)C(=O)c2ccc(Br)cc2)c1F [Compound 46, N-(2-bromo-4-(perfluoropropan-2-yl)-6-(trifluoromethyl)phenyl)-3-(4-bromo-N-(cyclopropylmethyl)benzamido)-2-fluorobenzamide]
[2]; [8]
  mortality at 5 ppm: ≥ 90%
[3]
  mortality at 1 ppm: 90%

## COC(c1cc(Br)c(NC(=O)c2cccc(N(CC3CC3)C(=O)c3ccc(C(F)(F)F)cc3)c2F)c(C(F)(F)F)c1)(C(F)(F)F)C(F)(F)F [Compound 38, N-(2-bromo-4-(1,1,1,3,3,3-hexafluoro-2-methoxypropan-2-yl)-6-(trifluoromethyl)phenyl)-3-(N-(cyclopropylmethyl)-4-(trifluoromethyl)benzamido)-2-fluorobenzamide]
[4]
  mortality at 1 ppm: ≥ 90%
